Experimental data from ChEMBL document CHEMBL1201862, “PubChem BioAssay data set” (2004).
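Five concentrations, 48 hours, 96-well plates. Here, GI50 denotes the concentration required for 50% inhibition of growth.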 Active and inactive are the calls of the source. Rule as the data show it: active = GI50 up to about 1.1 µM and inactive = higher.

Experiments:
Assay in all cases: NCI anticancer screen, dose series, 48 h
SK-MEL-5 = test system: SK-MEL-5
MDA-N = test system: MDA-N
786-0 = test system: 786-0
EKVX = test system: EKVX
NCI-H522 = test system: NCI-H522
SF-539 = test system: SF-539
IGROV-1 = test system: IGROV-1
Malme-3M = test system: Malme-3M
OVCAR-4 = test system: OVCAR-4
ACHN = test system: ACHN
UACC-62 = test system: UACC-62
T47D = test system: T47D
SW-620 = test system: SW-620
DU-145 = test system: DU-145
COLO 205 = test system: COLO 205
OVCAR-3 = test system: OVCAR-3
LOX IMVI = test system: LOX IMVI
MDA-MB-231 = test system: MDA-MB-231
OVCAR-5 = test system: OVCAR-5

SMILES	GI50 (SK-MEL-5)	GI50 (MDA-N)	GI50 (786-0)	GI50 (EKVX)	GI50 (NCI-H522)	GI50 (SF-539)	GI50 (IGROV-1)	GI50 (Malme-3M)	GI50 (OVCAR-4)	GI50 (ACHN)	GI50 (UACC-62)	GI50 (T47D)	GI50 (SW-620)	GI50 (DU-145)	GI50 (COLO 205)	GI50 (OVCAR-3)	GI50 (LOX IMVI)	GI50 (MDA-MB-231)	GI50 (OVCAR-5)
Brc1ccc2c(-c3nc(-c4c[nH]c5ccccc45)cs3)c[nH]c2c1	22.1 µM (inactive)	41.9 µM (inactive)	21 µM (inactive)	12.7 µM (inactive)	48 µM (inactive)	15.6 µM (inactive)	30.5 µM (inactive)	> 100 µM (inactive)	> 53.5 µM (inactive)	43.1 µM (inactive)	27.5 µM (inactive)	30.9 µM (inactive)	35.4 µM (inactive)	23.4 µM (inactive)	19.4 µM (inactive)	39.7 µM (inactive)	10.4 µM (inactive)	47.1 µM (inactive)	31.9 µM (inactive)
c1cnc2c(c1)ccc1cccnc12	2.62 µM (inactive)	4.97 µM (inactive)	3.78 µM (inactive)	3.91 µM (inactive)	5.86 µM (inactive)	3.72 µM (inactive)	4.26 µM (inactive)	3.56 µM (inactive)	4.63 µM (inactive)	2.86 µM (inactive)	3.81 µM (inactive)	4.92 µM (inactive)	8.69 µM (inactive)	4.13 µM (inactive)	4.27 µM (inactive)	6.67 µM (inactive)	3.61 µM (inactive)	> 42.1 µM (inactive)	5.31 µM (inactive)
COc1cc(/C=C\c2nnc(/C=C\c3ccc(O)c(OC)c3)s2)ccc1O	1.16 µM (inactive)	0.689 µM (active)	3.85 µM (inactive)	3.74 µM (inactive)	1.67 µM (inactive)	2.44 µM (inactive)	3.78 µM (inactive)	2.11 µM (inactive)	2.61 µM (inactive)	3.61 µM (inactive)	2.48 µM (inactive)	2.12 µM (inactive)	1.74 µM (inactive)	2.32 µM (inactive)	13.8 µM (inactive)	1.91 µM (inactive)	2.59 µM (inactive)	4.94 µM (inactive)	22.2 µM (inactive)
C=CCNC1=C2C[C@@H](C)C[C@@H](OC)[C@@H](OC(=O)CCCN)[C@H](C)/C=C(\C)[C@@H](OC(N)=O)[C@H](OC)/C=C\C=C(/C)C(=O)NC(=CC1=O)C2=O	8.39 µM (inactive)	12.6 µM (inactive)	17.1 µM (inactive)	18.7 µM (inactive)	6.82 µM (inactive)	12.6 µM (inactive)	13.5 µM (inactive)	11.4 µM (inactive)	20.6 µM (inactive)	18.8 µM (inactive)	15.2 µM (inactive)	27.4 µM (inactive)	19.7 µM (inactive)	13.8 µM (inactive)	3.54 µM (inactive)	16.7 µM (inactive)	5.45 µM (inactive)	15 µM (inactive)	16 µM (inactive)
COC(=O)Nc1nc2cc(NS(=O)(=O)c3cccs3)ccc2[nH]1	18.6 µM (inactive)	3.56 µM (inactive)	34.3 µM (inactive)	22.4 µM (inactive)	6.55 µM (inactive)	29.2 µM (inactive)	10.9 µM (inactive)	10.4 µM (inactive)	38.9 µM (inactive)	42.8 µM (inactive)	17 µM (inactive)	28.7 µM (inactive)	20.7 µM (inactive)	47.3 µM (inactive)	20.7 µM (inactive)	14.6 µM (inactive)	36.3 µM (inactive)	31 µM (inactive)	37.2 µM (inactive)
O=c1[nH]nc(Cc2ccccc2)n1/N=C/c1ccc([N+](=O)[O-])o1	1.83 µM (inactive)	1.69 µM (inactive)	2.76 µM (inactive)	3.77 µM (inactive)	1.39 µM (inactive)	2.11 µM (inactive)	2.67 µM (inactive)	1.51 µM (inactive)	4.92 µM (inactive)	3.4 µM (inactive)	1.75 µM (inactive)	6.7 µM (inactive)	1.39 µM (inactive)	3.77 µM (inactive)	1.89 µM (inactive)	0.292 µM (active)	0.659 µM (active)	3.38 µM (inactive)	6.68 µM (inactive)
N/N=C(/C=C1\C(=O)Nc2ccccc21)c1ccccc1	10.5 µM (inactive)	3.77 µM (inactive)	25.3 µM (inactive)	32.9 µM (inactive)	27.9 µM (inactive)	18.7 µM (inactive)	30.4 µM (inactive)	23.5 µM (inactive)	58.7 µM (inactive)	45.1 µM (inactive)	24.6 µM (inactive)	66.4 µM (inactive)	15.9 µM (inactive)	37.2 µM (inactive)	19.9 µM (inactive)	18.2 µM (inactive)	22.2 µM (inactive)	20.3 µM (inactive)	50.9 µM (inactive)
COc1ccc(/C=C/C(=O)c2ccc(OC(=O)/C=C/c3ccccc3)cc2)cc1	26 µM (inactive)	14.5 µM (inactive)	17 µM (inactive)	29 µM (inactive)	19.3 µM (inactive)	11.5 µM (inactive)	18.9 µM (inactive)	41 µM (inactive)	24.4 µM (inactive)	34.6 µM (inactive)	22.7 µM (inactive)	23.9 µM (inactive)	28.1 µM (inactive)	11.9 µM (inactive)	32.2 µM (inactive)	32 µM (inactive)	16.7 µM (inactive)	27.5 µM (inactive)	> 85.7 µM (inactive)
